Experimental data as given in patent publication US6787569B1, “Therapeutic guanidines” (Cambridge NeuroScience, Inc., priority 1994, dated 2004).
Where a name gives a salt, the structure may show the parent alone. Read-outs that look alike come from different tables or passages of the source.

Legend:
L-type Ca channels = assay: Inhibition of 45Ca uptake through L-type (dihydropyridine-sensitive) calcium channels in GH4C1 pituitary cells; assay type: cell-based
Description: Compounds of the invention representative of each of the major classes of agents claimed herein were tested to determine their ability to inhibit voltage-activated, dihydropyridine-sensitive L-type calcium channels in clonal GH4C1 pituitary cells. Said voltage-activated L-type calcium channels are found in cardiac muscle, vascular smooth muscle, and the cardiac Purkije cell conduction system. They are the sites of action of the major classes of Ca antagonists employed to treat hypertension, angina, cardiac arrhythmias, and related disorders. L-type Ca channels are also the sites of action of certain neuroprotective dihydropyridine Ca antagonists such as nimodipine.
The uptake of ^45Ca into GH4C1 cells was performed by an adaptation of the method of Tan, K. et al. (J. Biol. Chem., 259:418-426 (1984)). The principle of the method involves activating ion permeation through synaptosomal calcium channels by high K^+-induced depolarization of the synaptosomal preparation. The uptake of ^45Ca measured by this procedure is mediated by presynaptic L-type calcium channels, and is sensitive to dihydropyridine, phenylalkylamine, and benzothiazipine Ca antagonists at therapeutically relevant concentrations [Tashjian et al., ibid.]. The adaptation of the aforementioned method involves growing GH4C1 cells in 96-well culture plates, and is designed to provide a rapid and quantitative determination of the potency of various compounds in inhibiting ^45Ca uptake through L-type Ca channels.
GH4 cells, stored in liquid nitrogen, are suspended in 15 ml growth medium (Ham's F-10 medium plus 15% heat-inactivated horse serum and 2.5% heat-inactivated fetal bovine serum). The cells are centrifuged, resuspended, and then added to T-75 flasks containing 12-15 mls Growth Medium, and incubated at 37° C. for approximately 1 week. The cells are them removed from the T75 flask after dissociation from the walls of the flask by treatment for 5 minutes at 37° C. with 1 mg/ml Viocase. The Viocase is decanted, and the cells are resuspended in ˜200 ml of Growth Medium. The cells are then aliquoted (200 μl/well) into each well of several 96 well plates. The cells are then grown under the aforementioned conditions for 3-4 weeks, with replacement of Growth Medium occurring twice per week. Cells are fed growth medium 24 hours before they are employed for ^45Ca uptake determinations.
At the time of the assay, media Is aspirated from each 96-well plate using a manifold designed to allow 50 μL of liquid to remain in each well. Each plate is washed and aspirated twice with a low K^+ buffer solution “LKHBBS” (in mM 5 KCl, 145 NaCl, 10 Hepes, 1 MgCl2, […], 10 glucose, pH 7.4), 200 μl/well. Each plate is incubated for 10 minutes at 37° C., and aspirated as above. To each well of each plate, 50 μl of HBBS containing the drug to be tested in twice the final concentration is added. The plates are incubated for 10 minutes at room temperature. To each well of each plate, 50 μl of either of two solutions are added:
(a) LKHBBS containing 1 μCi of carrier-free ^45Ca, or
(b) HKHBBS (a high K^+ buffer containing 150 mM KCl and no NaCl, but otherwise identical to LKHBBS).
Each plate is then incubated for 5 minutes at room temperature, aspirated as above, and quenched with 200 μl/well of Quench Buffer (Ca-free LKHBBS containing 10 mM Tris-EGTA). Each plate is aspirated and rinsed with Quench Buffer a second time, then carefully aspirated to dryness. To each well of each plate 100 μl of High Safe II scintillation fluid is added. The plates are sealed, shaken, and subjected to scintillation spectrophotometry on a Microbeta 96-well Scintillation Counter (Wallac, Gaithersburg, Md., USA).
Net depolarization-induced ^45Ca uptake was determined for each concentration of each compound tested, as the difference between ^45Ca uptake in HKBBS and LK buffers. Results were plotted as % inhibition of depolarization-induced ^45Ca uptake vs. [compound] for each compound tested.

presynaptic Ca channels = assay: Inhibition of 45Ca uptake through presynaptic Ca channels in brain synaptosomes; assay type: biochemical, mammalian; conditions: high K+ depolarization-induced 45Ca uptake, read-out: IC50, block of ^45Ca uptake
Description: Compounds of the invention were tested to determine their ability to inhibit voltage-activated calcium channels in nerve terminals of mammalian brain. Said voltage-activated calcium channels directly control neurotransmitter release (see Nachsen, D. A. et al., J. Gen Physiol., 79:1065-1087 (1982)). The uptake of ^45Ca into brain synaptosomes was performed by an adaptation of the method of Nachsen and Blaustein (J. Physiol., 361:251-258 (1985)), as previously described [Goldin et al., PCT/US92/01050]. The principle of the method involves opening ion permeation through synaptosomal calcium channels by high K^+-induced depolarization of the synaptosomal preparation. The rapid component of ^45Ca uptake measured by this procedure is mediated by presynaptic calcium channels.
Briefly, synaptosomes are prepared by the method of Hajos (Brain Res., 93:485-489 (1975)). Freshly prepared synaptosomes (8 μl) were suspended In low potassium “LK” buffer (containing 3 mM KCl). Test compounds in 8 μl LK were added to synaptosomes to final concentrations ranging from 0.3 μM to 100 μM, and the mixture was preincubated for 5 minutes at room temperature. ^45Ca uptake was then initiated by adding isotope in either LK or in buffer (“HK”) containing high [potassium] (150 mM KCl). After 5 seconds, the ^45Ca uptake was stopped by adding 0.9 ml quench buffer (LK+10 mM EGTA). This solution was then filtered under vacuum and the filters washed with 15 ml of quench buffer.
Washed filters were subjected to scintillation spectrophotometry to determine the extent of ^45Ca uptake. Net depolarization-induced ^45Ca uptake was determined for each concentration of each compound tested, as the difference between ^45Ca uptake in HK and LK buffers. Results were plotted as % inhibition of depolarization-induced ^45Ca uptake vs. [compound] for each compound tested. Representative IC50 for inhibition of depolarization-induced ^45Ca uptake are presented below in the tables (2a-2d) below which together are identified as Table 2.

[1] = test system: veratridine-induced 3H-glutamate release from brain nerve terminals (voltage-activated presynaptic Na channels); assay: Inhibition of veratridine-induced 3H-glutamate release, rapid superfusion of synaptosomes; assay type: biochemical, rat
[2] = test system: depolarization-induced 3H-glutamate release from brain nerve terminals; assay: Inhibition of 3H-glutamate release, high [K+] depolarization, rapid superfusion of synaptosomes; assay type: biochemical; conditions: rat brain synaptosomes; for % Inhibition of ^3H-Glu Rel @ 3 μM: 3 μM compound; for % Inhibition of ^3H-Glu Rel @ 1 μM: 1 μM compound
[3] = test system: audiogenic seizures in DBA/2 mice; assay: In vivo anticonvulsant activity in the DBA/2 mouse model (audiogenic seizures); conditions: 30 minutes prior to auditory stimulus
Description: Compounds were tested for their effectiveness in preventing seizures in DBA/2 mice which have a unique sensitivity to auditory stimulation. Exposure to loud high-frequency sounds can trigger seizure activity in these animals. This sensitivity develops from postnatal day 12 and peaks around day 21 and slowly diminishes as the animals mature. The unusual response to auditory stimulation in this strain of mouse is believed to be due to a combination of early myelination (causing an unusually low excitatory threshold) and delayed development of inhibitory mechanisms. Glutamate, the predominant excitatory neurotransmitter, has been implicated in this response. Blockade of glutamate receptors of the NMDA and AMPA subtypes, prevents audiogenic seizures in these mice. Compounds that block the release of glutamate should similarly act to prevent seizure activity, and may be therapeutic in other neurologic disorders such as stroke, which also involves glutamate-mediated damage.
Mice were injected intraperitoneally with the compound specified in Table V below or with vehicle control, 30 minutes prior to being placed in a bell jar and turning on the auditory stimulus (12 KHz sine wave at 110-120 db). Administered doses are specified in Table V as milligram of compound per kilogram bodyweight of mouse. The auditory stimulus was left on for 60 seconds and mice reactions were timed and recorded.
Percentage inhibition was determined with reference to vehicle controls.

[4] = biological target: Type II neuronal voltage-activated sodium channels (Rattus norvegicus, UniProt P04775); assay: cell-based
Sequence of Type II neuronal voltage-activated sodium channels (P04775 whole entry): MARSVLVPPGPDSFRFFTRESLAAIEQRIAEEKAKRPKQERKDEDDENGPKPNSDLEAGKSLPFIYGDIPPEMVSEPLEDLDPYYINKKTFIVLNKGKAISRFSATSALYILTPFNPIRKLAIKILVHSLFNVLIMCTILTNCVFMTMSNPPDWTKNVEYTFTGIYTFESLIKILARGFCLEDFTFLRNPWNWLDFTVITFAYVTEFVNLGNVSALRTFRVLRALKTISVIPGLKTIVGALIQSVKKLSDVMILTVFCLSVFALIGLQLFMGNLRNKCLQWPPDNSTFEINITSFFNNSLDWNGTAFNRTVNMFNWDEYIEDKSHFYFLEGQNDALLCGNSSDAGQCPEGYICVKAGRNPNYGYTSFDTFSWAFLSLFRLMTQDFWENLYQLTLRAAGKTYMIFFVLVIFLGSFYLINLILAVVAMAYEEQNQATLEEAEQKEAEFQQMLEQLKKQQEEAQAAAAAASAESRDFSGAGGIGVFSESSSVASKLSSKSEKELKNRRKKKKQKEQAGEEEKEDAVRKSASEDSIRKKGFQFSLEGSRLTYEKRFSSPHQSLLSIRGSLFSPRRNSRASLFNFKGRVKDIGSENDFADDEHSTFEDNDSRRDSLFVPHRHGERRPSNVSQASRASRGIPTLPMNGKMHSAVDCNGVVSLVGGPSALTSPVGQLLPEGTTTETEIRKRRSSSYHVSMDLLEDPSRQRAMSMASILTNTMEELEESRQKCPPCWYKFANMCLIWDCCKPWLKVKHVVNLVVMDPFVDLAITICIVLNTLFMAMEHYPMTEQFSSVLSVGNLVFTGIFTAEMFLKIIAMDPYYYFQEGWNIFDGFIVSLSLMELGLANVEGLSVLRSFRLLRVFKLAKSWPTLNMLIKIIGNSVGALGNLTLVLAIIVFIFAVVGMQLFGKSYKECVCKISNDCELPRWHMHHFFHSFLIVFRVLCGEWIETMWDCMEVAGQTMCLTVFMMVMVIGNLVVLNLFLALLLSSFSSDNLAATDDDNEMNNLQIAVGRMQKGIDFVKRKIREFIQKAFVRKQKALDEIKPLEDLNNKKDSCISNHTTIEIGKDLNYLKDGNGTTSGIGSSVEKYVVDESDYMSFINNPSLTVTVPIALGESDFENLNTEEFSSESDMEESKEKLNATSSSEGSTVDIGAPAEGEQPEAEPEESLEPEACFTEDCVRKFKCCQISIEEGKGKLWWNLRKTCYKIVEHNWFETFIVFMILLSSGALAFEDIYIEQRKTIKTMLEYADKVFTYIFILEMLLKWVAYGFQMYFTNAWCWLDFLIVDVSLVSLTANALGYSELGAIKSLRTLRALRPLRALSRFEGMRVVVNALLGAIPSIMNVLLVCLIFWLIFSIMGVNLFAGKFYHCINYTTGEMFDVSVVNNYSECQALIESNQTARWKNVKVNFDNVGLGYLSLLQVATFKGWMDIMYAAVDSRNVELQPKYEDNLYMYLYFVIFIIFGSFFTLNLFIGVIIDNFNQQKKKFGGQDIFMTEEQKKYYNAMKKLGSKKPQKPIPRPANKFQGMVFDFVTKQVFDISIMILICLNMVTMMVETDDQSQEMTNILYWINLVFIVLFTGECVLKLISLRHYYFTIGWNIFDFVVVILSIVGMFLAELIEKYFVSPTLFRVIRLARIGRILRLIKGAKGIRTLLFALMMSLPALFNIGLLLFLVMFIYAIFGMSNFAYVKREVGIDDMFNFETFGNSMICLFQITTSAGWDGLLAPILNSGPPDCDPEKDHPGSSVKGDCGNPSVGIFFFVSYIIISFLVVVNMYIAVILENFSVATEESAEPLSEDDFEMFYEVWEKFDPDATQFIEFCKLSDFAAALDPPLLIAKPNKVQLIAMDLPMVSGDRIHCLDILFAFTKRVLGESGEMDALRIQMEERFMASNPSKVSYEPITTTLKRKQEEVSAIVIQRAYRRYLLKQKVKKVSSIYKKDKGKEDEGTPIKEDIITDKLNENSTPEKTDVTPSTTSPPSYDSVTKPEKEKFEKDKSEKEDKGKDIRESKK

[5] = high K+ depolarization-induced 45Ca uptake, read-out: IC50, block of ^45Ca uptake
[6] = veratridine (100 μM)-induced, tetrodotoxin-sensitive uptake, CHO cells expressing rat brain Type II Na channels, read-out: IC50, block of ^14C guanidinium uptake

SMILES | melting point [°C] | IC50 (L-type Ca channels; [5]) [µM] | IC50 (presynaptic Ca channels) [µM] | % Inhibition of ^3H-Glu Rel @ 3 μM [2] [%] | IC50 [4, 6] [µM] | also measured
CC(C)(C)c1ccc(CN(C(=N)N)c2cccc(I)c2)cc1 (as salt: HCl) [Example 48, N-(3-Iodophenyl)-N-(4-tert-butylbenzyl)guanidine.HCl] | 271 to 272 | – | – | – | – | –
CC(C)(C)c1ccc(CN(C(=N)N)c2ccc(Cl)c3ccccc23)cc1 (as salt: HCl) [Example 49, N-(4-Chloro-1-naphthyl)-N-(4-tert-benzyl)guanidine.HCl] | 115 to 117 | – | – | – | – | –
CCC(C)c1ccc(N(Cc2ccc(C(C)(C)C)cc2)C(=N)N)cc1 (stereo not shown) [Example 1, N-(4-sec-Butylphenyl)-N-(4-tert-butylbenzyl)guanidine.HCl] | – | 1.7 | 6.1 | 61 | – | % Inhibition of ^3H-Glu Rel @ 1 μM (*veratridine-induced glutamate release assay) ([1]; 1 μM compound, 50 μM veratridine-induced release, rat brain synaptosomes): 67* %; Audiogenic Response % Inhib. ([3]; 10 mg/kg intraperitoneally): 54%; Audiogenic Response % Inhib. ([3]; 20 mg/kg intraperitoneally): 80.5%; Audiogenic Response % Inhib. ([3]; 40 mg/kg intraperitoneally): 91%; IC50 [4]: 0.8 µM
CC(C)(C)c1ccc(CN(C(=N)N)c2ccc3c4c(cccc24)CC3)cc1 [Example 2] | – | 2.1 | 8.1 | 61 | 1 | % Inhibition of ^3H-Glu Rel @ 1 μM [2]: 52%
N=C(Nc1ccc2c3c(cccc13)CC2)NC(c1ccccc1)c1ccccc1 [Example 3, N-(5-Acenaphthyl)-N′-benzhydrylguanidine.HCl] | – | 2.7 | – | 53 | – | –
CCC(C)c1ccc(NC(=N)Nc2ccc(C(C)CC)cc2)cc1 (stereo not shown) [Example 4, N,N′-bis(4-sec-Butylphenyl)guanidine.HCl] | – | 2.1 | 11.2 | 85 | 0.8 | % Inhibition of ^3H-Glu Rel @ 1 μM [2]: 52%
CCC(C)c1ccc(N(C)C(=N)N(C)c2ccc(C(C)CC)cc2)cc1 (stereo not shown) [Example 6] | – | 4.3 | 5.9 | 92 | – | % Inhibition of ^3H-Glu Rel @ 1 μM [2]: 71%; IC50 [4]: 0.6 µM
Br.N=C(Nc1ccc2c3c(cccc13)-c1ccccc1-2)Nc1ccc2c3c(cccc13)-c1ccccc1-2 [Example 9, N-N′-Bis(3-fluoroanthenyl)guanidine hydrobromide] | – | – | 7.8 | – | 0.7 | % Inhibition of ^3H-Glu Rel @ 3 μM (*veratridine-induced glutamate release assay) [1]: 17* %
CC(C)(C)c1ccc(NC(=N)Nc2ccc(C(C)(C)C)cc2)cc1 [Example 13, N,N′-Bis(4-tort-butylphenyl)guanidine] | – | 4.1 | 1.5 | 70 | 0.9 | % Inhibition of ^3H-Glu Rel @ 1 μM (*veratridine-induced glutamate release assay) [1]: 62* %
COc1ccc(NC(=N)Nc2ccc(Cl)c(Cl)c2Cl)c2ccccc12.Cl [Example 15, N-(4-Methoxy-1-naphthyl)-N′-(2,3,4-trichlorophenyl)guanidine.HCl] | – | 1.7 | 1.7 | 88 | – | –
CCC(C)c1ccc(N(Cc2ccccc2)C(=N)N)cc1 (stereo not shown) [Example 17, N-(4-sec-Butylphenyl)-N-benzylguanidine] | 65 to 67 | – | – | – | – | –
CC(C)c1ccc(CN(C(=N)N)c2ccc3c4c(cccc24)CC3)cc1 [Example 19, N-(5-Acenaphthyl)-N-(4-isopropylbenzyl)guanidine] | 153 to 155 | 2.1 | – | – | – | % Inhibition of ^3H-Glu Rel @ 3 μM (*veratridine-induced glutamate release assay) ([1]; 3 μM compound, 50 μM veratridine-induced release, rat brain synaptosomes): 81* %
COc1ccc([C@@H]2Sc3ccccc3N(CCN(C)C)C(=O)[C@@H]2OC(C)=O)cc1 [diltiazem, reference compound] | – | – | – | – | – | IC50 (L-type Ca channels; read-out: IC50, block of ^45Ca uptake, high K+ depolarization-induced 45Ca uptake): 19.7 µM
